Results published in patent US6977270B2, “Tocotrienolquinone cyclization product with an anti-hypercholesterol effect” (BASF Aktiengesellschaft, priority 2000, dated 2005).

Test system: Cholesterol Synthesis in HepG2 Cells
Assay: Determination of cholesterol synthesis in HepG2 cells (14C-acetate incorporation into the non-saponifiable lipid/sterol fraction)
Assay type: cell-based
Details: mean of three
Protocol: Determination of Cholesterol Synthesis in HepG2 Cells (cf. Fahrner, J. et al., Eur. J. Biochem. 213: 1067-1073 (1993); Gebhardt, R., Lipids 28: 613-619 (1993); Pill, J. et al., Z. Anal. Chem. 332: 512-513 (1985)
To detect an effect on cholesterol biosynthesis by test substances, HepG2 cell cultures were used. These cells were cultured up to confluence in 35 mm 6-well cell culture incubation dishes in DMEM medium (Gibco, Eggenstein, Germany) with 2 mM gentamin, 10% fetal calf serum, 40 U/ml of streptomycin and 50 U/ml of penicillin. Frozen cells were cultured and passaged for one week before use. The confluent cells were then incubated in serum-free Williams Medium E for 4 hours at 37° C. with the test substances. ^14C-Acetate (18.5 kBq/ml; 0.5 μCi/ml) was then added to the solutions. The test substances were diluted in DMSO and used at the concentrations specified. […]
Incorporation of ^14C-acetate into the non-saponifiable lipid fraction (sterol fraction) was determined by the following method: 1.4 ml of homogenates were incubated with 2.8 ml of 0.5 M KOH in EtOH with shaking for 1 hour at 70° C. […] The ^14C activity in the samples was determined, after addition of 10 ml of scintillation solution (Ultima Gold®, Packard, Merident, Conn.) in a scintillation counter. The measured values shown are to be understood as means of three independent culture dishes per test solution. […]

With `CC(C)=CCC/C(C)=C/CC/C(C)=C/CC[C@]1(C)CCc2cc(O)c(C)c(C)c2O1` [R-γ-Tocotrienol] the “inhibition of 14C-acetate incorporation” value (concentration 5×10^−6 M, relative to DMSO control (100%)) was “approximately 20%” and the “maximum significant inhibition of 14C-acetate incorporation” value (concentrations ≧5×10^−5 M, relative to DMSO control) was “approximately 50%”.
